Structures can show the parent of a compound that is named as a salt.
Key:
[1] = test system: animal models of ischemia/reperfusion; details: in vivo; cited from earlier work
[2] = test system: hemorrhagic shock; details: in vivo; cited from earlier work
[3] = test system: human; details: in vivo; cited from earlier work
[4] = test system: perfused hearts; assay: calcium paradox in perfused hearts (Langendorff); parameters: species or system rat
Protocol: The effect of short-term hyperglycemia (2-5 days) on the calcium paradox was explored. The protocol (a 30-minute stabilization after hanging the heart on a Langendorff apparatus, a Ca^2+-free buffer for 10 min, a buffer containing 1.25 mM Ca^2+ buffer for 15 min) was initially applied to perfused hearts from control rats. When calcium was removed from the perfusate, the heart gradually ceased beating (FIG. 2A), although no protein loss from the heart was detected (FIG. 3C). […] The decrease in left ventricular […] pressure (LVDP) and an elevation in end diastolic pressure (EDP), as well as protein loss and blanching signaled the transition to a “stone heart” (Zimmerman, Cardiovasc Res (2000) 45(1):119-121) in hearts from all control animals examined.
Azaserine (AZA), the inhibitor of GFAT and HBP flux (Marshall, et al., J Biol Chem (1991) 266(8):4706-4712), negated the effects of hyperglycemia, restoring sensitivity to the paradox in 3 of 7 hearts (FIG. 2B). […] This decreased somewhat the protection seen with hyperglycemia, but made the reversal seen with azaserine more pronounced (FIGS. 2B and 3).
To confirm the involvement of the HBP in the protection due to hyperglycemia, a complementary series of experiments at a final Ca^2+ concentration of 1.25 mM were performed.
An independent mechanism of increasing metabolites in the HBP is to provide the heart with free fatty acids (Hawkins, et al., J Clin Invest (1997) 99(9):2173-2182). This occurs because of the “glucose-sparing” effect, a rapid block on the entry of glucose into the glycolytic pathway because of an inhibition of phosphofructokinase. […] In addition, SKF96365 (also known as 1-[β-[3-(4-methoxyphenyl)propoxy]-4-methoxyphenethyl]-1H-imidazole, HCl; available from Calbiochem, San Diego, Calif.) as an independent means of blocking the channels responsible for CCE was utilized (Putney, Capacitative Calcium Entry (1997) Austin: Landes Biomedical). This too was at least partially effective in 4 of 6 animals (FIG. 4).

[5] = test system: isolated rat heart; details: administered prior to ischemia or just prior to reperfusion; cited from earlier work
[6] = test system: isolated cardiomyocyte; details: cited from earlier work

O=C(COP(=O)(O)O)[C@@H](O)[C@H](O)[C@H](O)COP(=O)(O)O [FBP, fructose-1,6-bisphosphate]
protection in animal models of ischemia/reperfusion [1]: protective
protection in hemorrhagic shock [2]: protective
outcomes in human studies [3]: improved outcomes

COc1ccc(CCCOC(Cn2ccnc2)c2ccc(OC)cc2)cc1 (stereo not drawn) [SKF96365, 1-[β-[3-(4-methoxyphenyl)propoxy]-4-methoxyphenethyl]-1H-imidazole, HCl]
animals in which treatment was at least partially effective in the calcium paradox ([4]; final Ca2+ 1.25 mM): 4 of 6

[N-]=[N+]=CC(=O)OC[C@H](N)C(=O)O [Azaserine]
hearts in which sensitivity to the calcium paradox was restored (effects of hyperglycemia negated) ([4]; hearts from STZ hyperglycemic animals treated with azaserine): 3 of 7

CN(N=O)C(=O)N[C@H]1C(O)O[C@H](CO)[C@@H](O)[C@@H]1O (mixture of isomers) [streptozotocin]
hearts demonstrating almost complete protection in the calcium paradox ([4]; hearts from animals made hyperglycemic by STZ treatment (2-5 days), 10 min Ca2+-free, 1.25 mM Ca2+ readdition): 7 of 7

NC(=O)CC[C@H](N)C(=O)O [glutamine]
protection in cardiac ischemia [5]: remarkable protection
protection in isolated cardiomyocyte model [6]: protective

— US20080166323A1, “Activators of Hexosamine Biosynthesis as Inhibitors of Injury Induced by Ischemia or Hermorrhagic Shock” (UAB RESEARCH FOUNDATION, priority 2004, published 2008)
